Results: the NIST ThermoML archive (doi:10.1021/je060271a)
“And” between values parts separate entries of the source, which are not always exact repeats. Equal entries are not always repeated.

Settings: 283.15 K, Liquid, Vibrating tube method

CCCCCC(=O)OCC(COC(=O)CCCCC)(COC(=O)CCCCC)COC(=O)CCCCC [pentaerythritol tetrahexanoate]
Settings	mass density
15225 kPa	1012.8 kg/m3
15241 kPa	1012.9 kg/m3
15260 kPa	1012.8 kg/m3
15276 kPa	1012.7 kg/m3
15292 kPa	1012.8 kg/m3
15311 kPa	1012.8 kg/m3
15327 kPa	1013 kg/m3
15343 kPa	1012.8 kg/m3
15363 kPa	1012.9 kg/m3
15379 kPa	1013.1 kg/m3
15395 kPa	1012.9 kg/m3
15412 kPa	1013 kg/m3
15432 kPa	1012.9 kg/m3
15448 kPa	1012.9 kg/m3
15467 kPa	1013.1 kg/m3
15483 kPa	1013.1 kg/m3
15500 kPa	1013.1 kg/m3
15519 kPa	1012.8 kg/m3
15536 kPa	1013.1 kg/m3
15552 kPa	1012.9 kg/m3
15572 kPa	1013 kg/m3
15589 kPa	1013 kg/m3
15606 kPa	1013 kg/m3
15626 kPa	1013 kg/m3
15642 kPa	1013.1 kg/m3
15659 kPa	1012.9 kg/m3
15679 kPa	1013 kg/m3
15696 kPa	1013.1 kg/m3
15713 kPa	1013.1 kg/m3
15733 kPa	1013 kg/m3
15750 kPa	1013.1 kg/m3
15767 kPa	1013.1 kg/m3
15788 kPa	1013 kg/m3
15805 kPa	1013.2 kg/m3
15823 kPa	1013.2 kg/m3
15841 kPa	1013.2 kg/m3
15861 kPa	1013.1 kg/m3
15878 kPa	1013.2 kg/m3
16066 kPa	1013.4 kg/m3
16083 kPa	1013.3 kg/m3
16104 kPa	1013.4 kg/m3
16122 kPa	1013.3 kg/m3
16139 kPa	1013.3 kg/m3
16157 kPa	1013.3 kg/m3
16178 kPa	1013.2 kg/m3
16195 kPa	1013.3 kg/m3
16214 kPa	1013.4 kg/m3
16230 kPa	1013.4 kg/m3
16247 kPa	1013.2 kg/m3
16266 kPa	1013.4 kg/m3
16282 kPa	1013.4 kg/m3
16299 kPa	1013.5 kg/m3
16315 kPa	1013.4 kg/m3
16334 kPa	1013.3 kg/m3
16351 kPa	1013.4 kg/m3
16368 kPa	1013.6 kg/m3
16388 kPa	1013.5 kg/m3
16404 kPa	1013.4 kg/m3
16421 kPa	1013.5 kg/m3
16441 kPa	1013.4 kg/m3
16457 kPa	1013.5 kg/m3
16474 kPa	1013.5 kg/m3
16491 kPa	1013.6 kg/m3
16511 kPa	1013.5 kg/m3
16528 kPa	1013.6 kg/m3
16545 kPa	1013.6 kg/m3
16565 kPa	1013.7 kg/m3
16582 kPa	1013.5 kg/m3
16598 kPa	1013.5 kg/m3
16619 kPa	1013.6 kg/m3
16636 kPa	1013.6 kg/m3
16653 kPa	1013.6 kg/m3
16673 kPa	1013.6 kg/m3
16690 kPa	1013.7 kg/m3
16707 kPa	1013.6 kg/m3
16727 kPa	1013.6 kg/m3
16745 kPa	1013.6 kg/m3
16762 kPa	1013.6 kg/m3
16782 kPa	1013.6 kg/m3
16800 kPa	1013.6 kg/m3
16817 kPa	1013.7 kg/m3
16837 kPa	1013.7 kg/m3
16854 kPa	1013.6 kg/m3
16872 kPa	1013.7 kg/m3
16893 kPa	1013.7 kg/m3
16911 kPa	1013.8 kg/m3
16929 kPa	1013.8 kg/m3
16951 kPa	1013.7 kg/m3
16969 kPa	1013.8 kg/m3
16988 kPa	1013.8 kg/m3
17008 kPa	1013.8 kg/m3
17031 kPa	1013.9 kg/m3
17050 kPa	1013.8 kg/m3
17097 kPa	1013.8 kg/m3
17099 kPa	1013.9 kg/m3
17100 kPa	1013.9 kg/m3
17101 kPa	1013.7 kg/m3
17113 kPa	1013.8 kg/m3
17138 kPa	1013.8 kg/m3
17147 kPa	1013.8 kg/m3
17148 kPa	1013.8 kg/m3 and 1014 kg/m3
17156 kPa	1013.8 kg/m3
17174 kPa	1013.8 kg/m3
17193 kPa	1013.9 kg/m3
17211 kPa	1013.9 kg/m3
17233 kPa	1013.8 kg/m3
17252 kPa	1013.9 kg/m3
17270 kPa	1014 kg/m3
17291 kPa	1013.9 kg/m3
17309 kPa	1013.8 kg/m3
17331 kPa	1014 kg/m3
17350 kPa	1013.9 kg/m3
17373 kPa	1013.9 kg/m3
17392 kPa	1014 kg/m3
17411 kPa	1014.1 kg/m3
17430 kPa	1014 kg/m3
17453 kPa	1014.1 kg/m3
17472 kPa	1014 kg/m3
17491 kPa	1014.1 kg/m3
17514 kPa	1014.1 kg/m3
17534 kPa	1014.1 kg/m3
17555 kPa	1014 kg/m3
17574 kPa	1014.1 kg/m3
17593 kPa	1014.1 kg/m3
17616 kPa	1014.1 kg/m3
17635 kPa	1014.1 kg/m3
17656 kPa	1014 kg/m3
17672 kPa	1014.2 kg/m3
17688 kPa	1014.2 kg/m3
17708 kPa	1014 kg/m3
17723 kPa	1014.2 kg/m3
17739 kPa	1014.3 kg/m3
17758 kPa	1014.2 kg/m3
17775 kPa	1014.2 kg/m3
17791 kPa	1014.2 kg/m3
17807 kPa	1014.3 kg/m3
17827 kPa	1014.2 kg/m3
17843 kPa	1014.2 kg/m3
17861 kPa	1014.3 kg/m3
17877 kPa	1014.2 kg/m3
17892 kPa	1014.2 kg/m3
17907 kPa	1014.3 kg/m3
17925 kPa	1014.3 kg/m3
17939 kPa	1014.3 kg/m3
